Measurements: patent US9751875B2, “Quinine compounds, and optical isomers, preparation method and medical use thereof” (BEIJING FSWELCOME TECHNOLOGY DEVELOPMENT CO., LTD., priority 2013, dated 2017)
Like-named read-outs stand apart in the source and are kept apart here.

Assays:
[1] = system: tracheal smooth muscle from guinea pigs (contraction induced by 3 × 10^−6 mol/L of CCh); assay: Antagonism in vitro of contraction of isolated tracheal smooth muscle from guinea pigs induced by carbachol (CCh); format: cell-based, guinea pig
[2] = system: tracheal smooth muscle from guinea pigs (contraction induced by 3 × 10^−6 mol/L of CCh); assay: as above; format: cell-based, guinea pig; conditions: cumulative dosing
From the text: Preparation of the Isolated Tracheal Smooth Muscle Specimen from a Guinea Pig:
After a guinea pig was narcotized with urethane, the trachea between the throat and carina of the guinea pig was taken out rapidly, and placed in the Krebs-Henseleit (K-H) solution (composition (g/L): NaCl 6.92, KCl 0.35, CaCl2 0.28, KH2PO4 0.16, MgSO4.7H2O 0.4568, NaHCO3 2.1, Glucose 2.0) with a mixture gas of 5% CO2 and 95% O2 purged. After loose connective tissues and fats around the trachea were separated, the trachea was cut into trachea pieces having a width of about 3 mm and a length of 20 mm by a surgical scissor, with both ends of the trachea piece ligated with 4˜0 silk suture, and then placed into a thermostatic bath containing 5 ml of K—H solution (pH 7.4) at 37° C., with the mixture gas of 5% CO2 and 95% O2 continuously purged. A muscle tension transducer was connected to the upper end so as to apply 1.0 g of resting tension to the specimen, the change of the tension was recorded, the culture solution was replaced every 20 min, and the test was started after being balanced for 60 min.
Administration method: After the trachea piece was stabilized, 3×10^−6 mol/L of CCh was added into a bath, and after the contractile tension of the trachea piece reached a peak level, the example compounds, ipratropium bromide and tiotropium bromide were added into a Magnus bath by a cumulative dosing regimen with a dosage of 10^−9˜10^−5 mol, respectively, and the diastolic condition of the trachea piece was observed: if no response occurred (below the threshold concentration), a next dosage was continued to be added in sequence; if response occurred, after it reached a diastolic plateau, a next dosage was further added. The above operation was repeated until the contractile curve reached the minimum value. Finally, 10^−6 mol/L of isoprenaline was added so that the maximum relaxation would be reached and the curve was recorded.
Statistical approach: The result was expressed as mean ±standard deviation, and counted by Sigma Stat statistical package. The data was analyzed by using variance analysis, the comparison among means of a plurality of specimen was performed by using Student-Newman-Keuls(SNK) test; statistical significant level α=0.05 (bilateral).
Compounds shown in Table 5 were further prepared according to the present invention, and their IC50 […] of resistance to the contraction of tracheal smooth muscle from guinea pigs induced by a concentration of 3×10^−6 mol/L of CCh was determined.

[3] = read-out: IC50 (μM), antagonism in vitro against the contraction of the tracheal smooth muscle induced by CCh, 3 × 10^−6 mol/L of CCh
[4] = Cavia porcellus, 3 × 10^−6 mol/L of CCh, read-out: IC50 (μM), antagonism in vitro against the contraction of the tracheal smooth muscle induced by CCh
[5] = Cavia porcellus, read-out: IC50 (μM), antagonism in vitro against the contraction of the tracheal smooth muscle induced by CCh, 3 × 10^−6 mol/L of CCh
[6] = 3 × 10^−6 mol/L of CCh, read-out: IC50 (μM), antagonism in vitro against the contraction of the tracheal smooth muscle induced by CCh

| Compound | Onset time [1] [min] | Time for eliminating inhibition effect (min) [1] | IC50 [2, 3] [µM] | IC50 [2, 4] [µM] | IC50 [2, 5] [µM] | Time for eliminating inhibition effect [1] [min] | IC50 [2, 6] [µM] |
| --- | --- | --- | --- | --- | --- | --- | --- |
| OC(CO[C@H]1C[N+]2(CCCOc3ccccc3)CCC1CC2)(c1ccccc1)C1CC1.[Br-] (stereo partly drawn) [Example 20, (2S,3S)-3-[(2-cyclopropyl-2-hydroxyl-2-phenyl)ethoxyl]-1-(3-phenoxypropyl)-1-azabicyclo[2,2,2]octane bromide] | 6.32 | more than 300 min | 2.35 | – | – | – | – |
| OC(CO[C@@H]1C[N+]2(CCCOc3ccccc3)CCC1CC2)(c1ccccc1)C1CC1.[Br-] (stereo partly drawn) [Example 21, (2S,3R)-3-[(2-cyclopropyl-2-hydroxyl-2-phenyl)ethoxyl]-1-(3-phenoxypropyl)-1-azabicyclo[2,2,2]octane bromide] | 6.79 | more than 300 min | 1.35 | – | – | – | – |
| OC(CO[C@@H]1C[N+]2(CCCOc3ccccc3)CCC1CC2)(c1ccccc1)C1CC1.[Br-] (stereo partly drawn) [Example 22, (2R,3R)-3-[(2-cyclopropyl-2-hydroxyl-2-phenyl)ethoxyl]-1-(3-phenoxypropyl)-1-azabicyclo[2,2,2]octane bromide] | 6.45 | more than 300 min | 0.373 | – | – | – | – |
| OC(CO[C@H]1C[N+]2(CCCOc3ccccc3)CCC1CC2)(c1ccccc1)C1CC1 (stereo partly drawn) [Example 24, (2R,3R),(2S,3S) Configuration of 3-[(2-cyclopropyl-2-hydroxyl-2-phenyl)ethoxyl]-1-(3-phenoxypropyl)-1-azabicyclo[2,2,2]octane bromide] | 6.58 | more than 300 min | – | 0.451 | – | – | – |
| OC(CO[C@@H]1C[N+]2(CCOc3ccccc3)CCC1CC2)(c1ccccc1)C1CCCC1.[Br-] (stereo partly drawn) [Example 25, (2S,3R)-3-[(2-cyclopentyl-2-hydroxyl-2-phenyl)ethoxyl]-1-(2-phenoxyethyl)-1-azabicyclo[2,2,2]octane bromide] | 6.36 | more than 300 min | – | – | 0.867 | – | – |
| OC(CO[C@@H]1C[N+]2(COc3ccccc3)CCC1CC2)(c1ccccc1)C1CCCC1.[Br-] (stereo partly drawn) [Example 27, (2R,3R)-3-[(2-cyclopentyl-2-hydroxyl-2-phenyl)ethoxyl]-1-phenoxymethyl-1-azabicyclo[2,2,2]octane bromide] | 5.89 | more than 300 min | – | – | 0.0363 | – | – |
| OC(CO[C@@H]1C[N+]2(COCOc3ccccc3)CCC1CC2)(c1ccccc1)C1CCCC1.[Cl-] (stereo partly drawn) [Example 28, (2R,3R)-3-[(2-cyclopentyl-2-hydroxyl-2-phenyl)ethoxyl]-1-phenoxymethoxymethyl-1-azabicyclo[2,2,2]octane chloride] | 6.06 | more than 300 min | – | 0.0264 | – | – | – |
| OC(COC1C[N+]2(CCCOc3ccccc3)CCC1CC2)(c1cccc2ccccc12)C1CCCC1.[Br-] [Example 29, (2R,3R)-3-[(2-cyclopentyl-2-hydroxyl-2-naphthyl)ethoxyl]-1-(3-phenoxypropyl)-1-azabicyclo[2,2,2]octane bromide] | 7.14 | more than 300 min | – | – | 0.723 | – | – |
| OC(COC1C[N+]2(CCCOc3ccccc3)CCC1CC2)(c1ccccc1Cl)C1CCCC1.[Br-] [Example 30, (2R,3R)-3-[(2-cyclopentyl-2-hydroxyl-2-o-chlorophenyl)ethoxyl]-1-(3-phenoxypropyl)-1-azabicyclo[2,2,2]octane bromide] | 5.98 | more than 300 min | – | – | 0.0371 | – | – |
| OC(COC1C[N+]2(CCCOc3ccccc3)CCC1CC2)(c1cccnc1)C1CCCC1.[Br-] [Example 31, (2R,3R)-3-[(2-cyclopentyl-2-hydroxyl-2-(3-pyridyl))ethoxyl]-1-(3-phenoxypropyl)-1-azabicyclo[2,2,2]octane bromide] | 6.37 | more than 300 min | – | – | 0.0206 | – | – |
| OC(COC1C[N+]2(CCCOc3ccccc3)CCC1CC2)(c1ccco1)C1CCCC1.[Br-] [Example 32, (2R,3R)-3-[(2-cyclopentyl-2-hydroxyl-2-(2-furyl))ethoxyl]-1-(3-phenoxypropyl)-1-azabicyclo[2,2,2]octane bromide] | 5.85 | more than 300 min | – | – | 0.0379 | – | – |
| COC(COC1C[N+]2(CCCOc3ccccc3)CCC1CC2)(c1cccnc1)C1CCCC1.[Br-] [Example 33, (2R,3R)-3-[(2-cyclopentyl-2-methoxyl-2-(3-pyridyl))ethoxyl]-1-(3-phenoxypropyl)-1-azabicyclo[2,2,2]octane bromide] | 6.17 | more than 300 min | – | – | 0.139 | – | – |
| CC(C)[N+]1(C)[C@@H]2CC[C@H]1CC(OC(=O)C(CO)c1ccccc1)C2.[Br-] (stereo partly drawn) [ipratropium bromide, reference compound] | 6.82 | – | – | – | – | 185 | 0.0361 |
| C[N+]1(C)[C@@H]2C[C@@H](OC(=O)C(O)(c3cccs3)c3cccs3)C[C@H]1[C@@H]1O[C@@H]12 [tiotropium bromide, reference compound] | 30.37 | more than 300 min | – | – | 0.0142 | – | – |
| (2R,3R),(2S,3S) Configuration of 3-[(2-cyclopentyl-2-hydroxyl-2-phenyl)ethoxyl]-1-(3-phenoxypropyl)-1-azabicyclo[2,2,2]octane bromide [Example 6] | 6.61 | more than 300 min | – | – | – | – | 0.156 |
| (2R,3R),(2S,3S)-3-[(2-cyclohexyl-2-hydroxyl-2-phenyl)ethoxyl]-1-(3-phenoxypropyl)-1-azabicyclo[2,2,2]octane bromide [Example 12] | 7.13 | more than 300 min | – | – | – | – | 0.251 |
| (2R,3S),(2S,3R)-3-[(2-cyclopropyl-2-hydroxyl-2-phenyl)ethoxyl]-1-(3-phenoxypropyl)-1-azabicyclo[2,2,2]octane bromide [Example 23] | 6.78 | more than 300 min | – | – | – | – | 2.02 |
